# How the values were obtained:
# Format in all cases: in vivo, mouse
# [1] = test system: mice with DC crush injury; test: Immunohistochemistry of scar tissue (laminin, Sema-3A, CS-56) at lesion site; settings: for attenuation of laminin immunoreactivity (scar tissue): 4 weeks after DC injury
# Description: After killing animals by exposure to rising concentrations of CO2, mice were intracardially perfused with 4% formaldehyde (TAAB Laboratories, Berkshire, UK) in 0.1M phosphate buffered saline (PBS). The lesion site+5 mm either side were dissected out, post-fixed in 4% formaldehyde and subjected to a graded series of sucrose solutions for cryoprotection. Spinal cords were blocked in OCT mounting compound (TAAB laboratories), sectioned longitudinally at 15 μm-thick using a cryostat (Brights Instruments, Huntingdon, UK) before being collected on charged glass slides (ThermoFisher Scientific, Loughborough, UK) and kept at −20° C. until required. Slides were numbered consecutively and sections from the middle of the lesion site were chosen for all immunohistochemical analyses, as described by previously (Surey S, Berry M, Logan A, Bicknell R, Ahmed Z. Differential cavitation, angiogenesis and wound-healing responses in injured mouse and rat spinal cords. Neuroscience 2014; 275: 62-80).
# Fluorescent immunohistochemistry was performed as described previously (S. Surey, M. Berry, A. Logan, R. Bicknell, Z. Ahmed, Differential cavitation, angiogenesis and wound-healing responses in injured mouse and rat spinal cords. Neuroscience 275, 62-80 (2014)). […] Laminin was detected at 4 weeks after DC injury and treatment using a rabbit polyclonal anti-laminin primary antibody (ab11575; 1:400 dilution, Abcam). Macrophages were detected with a rabbit polyclonal anti-CD68 antibody (ab1525212; 1:500 dilution, Abcam); microglia were detected using a rabbit polyclonal antibody to CD11b (ab128797, 1:500 dilution, Abcam); GFAP was detected using a polyclonal anti-GFAP antibody (SAB5700611, 1:400 dilution, Sigma) were all detected at 10 days after DC injury and treatment. Semaphorin-3A (Sema-3A) and chondroitin sulphate proteoglycan (CSPG) was detected using monoclonal anti-CS-56 antibody (C8035; 1:200 dilution, Sigma) at 7 days after injury. […] CTB labelled axons in the mouse were detected using a goat polyclonal anti-CTB antibody (#703; 1:1000 dilution, List Biological Labs) at 6 weeks after DC injury.
# All analyses were performed by investigators masked to the experimental groups. Relative fluorescent staining intensity was calculated by image analysis as described previously (Surey S, Berry M, Logan A, Bicknell R, Ahmed Z. Differential cavitation, angiogenesis and wound-healing responses in injured mouse and rat spinal cords. Neuroscience 2014; 275: 62-80). Briefly, photomicrographs taken at 5× magnification using the same standardized exposure settings throughout for each antibody were thresholded and the mean integrated intensity of pixels/unit area for each antibody was recorded Using ImageJ (NIH, USA) from n=12 mice/antibody.
# [2] = test system: mice with DC crush injury; test: CSF biomarkers of SCI (S100β, NSE, GFAP, pNF-H, NF-L); settings: 3 d after injury
# IL-1β, TNF-α and IL-6 = test: qRT-PCR of proinflammatory pain markers after DC injury in mice; settings: for injury-induced rise of proinflammatory pain markers IL-1β, TNF-α and IL-6: 3d after DC injury
# Method: For oral delivery of AZD1236, n=6 adult male C57BL6 mice/group (Charles River, Margate, UK) were randomly allocated to either: (1), Sham (control; partial laminectomy but no DC crush injury); (2), DC crush injury+vehicle (partial laminectomy followed by DC crush injury and injection of vehicle); (3), DC crush injury+100 mg/kg AZD1236; (4), DC crush injury+200 mg/kg AZD1236; and (5), DC crush injury+300 mg/kg AZD1236. For intrathecal (it) delivery of AZD1236, adult male C57BL6 mice (25-30 g) (Charles River, Margate, UK) were randomly allocated to either: (1), Sham (control; partial laminectomy but no DC crush injury); (2), DC crush injury+vehicle (partial laminectomy followed by DC crush injury and injection of vehicle); (3), DC crush injury+2.5 mg/kg AZD1236; (4), DC crush injury+5 mg/kg AZD1236; and (5), DC crush injury+10 mg/kg AZD1236. For intrathecal delivery an indwelling atlanto-occipital intrathecal catheter was inserted into the intrathecal space, as described previously (F. A. Oladosu, B. P. Ciszek, S. C. O'Buckley, A. G. Nackley, Novel intrathecal and subcutaneous catheter delivery systems in the mouse. J Neurosci Methods 264, 119-128 (2016)). Briefly, with mice in the sternal recumbency a small incision was made at the nape of the neck followed by detachment of the muscles on either side of the external occipital crest to expose the A-O membrane. The membrane was incised and a 6 cm Alzet mouse intrathecal catheter (Alzet, Cupertino, Calif., USA) and polyurethane segments were gently guided 2.5 cm into the intrathecal space. […]
# DC crush injury was administered bilaterally at the T8 vertebral level as described previously (S. Surey, M. Berry, A. Logan, R. Bicknell, Z. Ahmed, Differential cavitation, angiogenesis and wound-healing responses in injured mouse and rat spinal cords. Neuroscience 275, 62-80 (2014); M. L. Read, S. Mir, R. Spice, R. J. Seabright, E. L. Suggate, Z. Ahmed, M. Berry, A. Logan, Profiling RNA interference (RNAi)-mediated toxicity in neural cultures for effective short interfering RNA design. J Gene Med 11, 523-534 (2009)). […]
# [3] = immediate or delayed by 24 h, 7 days (8 days delayed group)
compound,measurement,setting,value
C[C@]1(CS(=O)(=O)N2CC=C(C#Cc3cnc(C4CC4)nc3)CC2)NC(=O)NC1=O [AZD1236],attenuation of laminin immunoreactivity (scar tissue),[1]; 24 hour delayed,> 77%
same,attenuation of CS-56 immunoreactivity at the lesion site,[1]; [3],> 81%
same,attenuation of Sema-3A immunoreactivity at the lesion site,[1]; [3],> 84%
same,attenuation of laminin immunoreactivity (scar tissue),[1]; immediately after injury,> 80%
same,"levels of S100β, NSE, GFAP, pNF-H and NF-L in CSF",[2],significantly attenuated all of these biomarkers to near sham-control levels
same,"injury-induced rise of proinflammatory pain markers IL-1β, TNF-α and IL-6","IL-1β, TNF-α and IL-6; intrathecal, 5 mg/kg",reduced them to sham-treated levels
same,"proinflammatory cytokines, 24-h delayed treatment","IL-1β, TNF-α and IL-6; optimal doses, 24 h delay vs immediate",equally as effective as immediate delivery
same,"injury-induced rise of proinflammatory pain markers IL-1β, TNF-α and IL-6","IL-1β, TNF-α and IL-6; oral, 200 mg/kg",reduced them to sham-treated levels
